Measurements reported in patent publication US9943504B2, “Arginine methyltransferase inhibitors and uses thereof” (Epizyme, Inc., priority 2013, dated 2018).

Test system: mono-methyl arginine in RKO cells
Test: RKO Methylation Assay (In Cell Western)
Assay type: cell-based
Conditions: Homo sapiens, 72 hours, percent activation, read-out: RGG ICW EC30
Text: RKO adherent cells were purchased from ATCC (American Type Culture Collection), Manassas, Va., USA. DMEM/Glutamax medium, penicillin-streptomycin, heat inactivated fetal bovine serum, 0.05% trypsin and D-PBS were purchased from Life Technologies, Grand Island, N.Y., USA. Odyssey blocking buffer, 800CW goat anti-rabbit IgG (H+L) antibody, and Licor Odyssey infrared scanner were purchased from Licor Biosciences, Lincoln, Nebr., USA. Mono-methyl arginine antibody was purchased from Cell Signaling Technology, Danvers, Mass., USA. Methanol was purchased from VWR, Franklin, Mass., USA. 10% Tween 20 was purchased from KPL, Inc., Gaithersburg, Md., USA. DRAQ5 was purchased from Biostatus Limited, Leicestershire, UK.
RKO adherent cells were maintained in growth medium (DMEM/Glutamax medium supplemented with 10% v/v heat inactivated fetal bovine serum and 100 units/mL penicillin-streptomycin) and cultured at 37° C. under 5% CO2.
Cell Treatment, in Cell Western (ICW) for Detection of Mono-Methyl Arginine and DNA Content.
RKO cells were seeded in assay medium at a concentration of 20,000 cells per mL to a poly-D-lysine coated 384 well culture plate (BD Biosciences 356697) with 50 μL per well. Compound (100 nL) from a 96-well source plate was added directly to 384 well cell plate. Plates were incubated at 37° C., 5% CO2 for 72 hours. After three days of incubation, plates were brought to room temperature outside of the incubator for ten minutes and blotted on paper towels to remove cell media. 50 μL of ice cold 100% methanol was added directly to each well and incubated for 30 min at room temperature. After 30 min, plates were transferred to a Biotek EL406 plate washer and washed 2 times with 100 μL per well of wash buffer (1×PBS). Next 60 μL per well of Odyssey blocking buffer (Odyssey Buffer with 0.1% Tween 20 (v/v)) were added to each plate and incubated 1 hour at room temperature. Blocking buffer was removed and 20 μL per well of primary antibody was added (mono-methyl arginine diluted 1:200 in Odyssey buffer with 0.1% Tween 20 (v/v)) and plates were incubated overnight (16 hours) at 4° C. Plates were washed 5 times with 100 μL per well of wash buffer. Next 20 μL per well of secondary antibody was added (1:200 800CW goat anti-rabbit IgG (H+L) antibody, 1:1000 DRAQ5 (Biostatus limited) in Odyssey buffer with 0.1% Tween 20 (v/v)) and incubated for 1 hour at room temperature. The plates were washed 5 times with 100 μL per well wash buffer then 2 times with 100 μL per well of water. Plates were allowed to dry at room temperature then imaged on the Licor Odyssey machine which measures integrated intensity at 700 nm and 800 nm wavelengths. Both 700 and 800 channels were scanned.
First, the ratio for each well was determined by:
Each plate included fourteen control wells of DMSO only treatment (minimum activation) as well as fourteen control wells for maximum activation treated with 20 μM of a reference compound. The average of the ratio values for each control type was calculated and used to determine the percent activation for each test well in the plate. Reference compound was serially diluted three-fold in DMSO for a total of nine test concentrations, beginning at 20 μM. Percent activation was determined and EC30 curves were generated using triplicate wells per concentration of compound.

SMILES: CN(CCN)Cc1n[nH]c2cccc(OCc3ccccc3)c12 [Compound 1]
- EC30: ≤ 3000 nM
